In patent publication EP2342182B1 (H. Lundbeck A/S, priority 2008, dated 2010) one finds IC50 and Ki data, which are given here for 19 compounds.

Experiment [1] concerns the target T1, human NK3 receptor (Homo sapiens, UniProt P29371).
T1 construct: expressed in transfected cells; membranes prepared from them
T1 sequence (P29371 1-465): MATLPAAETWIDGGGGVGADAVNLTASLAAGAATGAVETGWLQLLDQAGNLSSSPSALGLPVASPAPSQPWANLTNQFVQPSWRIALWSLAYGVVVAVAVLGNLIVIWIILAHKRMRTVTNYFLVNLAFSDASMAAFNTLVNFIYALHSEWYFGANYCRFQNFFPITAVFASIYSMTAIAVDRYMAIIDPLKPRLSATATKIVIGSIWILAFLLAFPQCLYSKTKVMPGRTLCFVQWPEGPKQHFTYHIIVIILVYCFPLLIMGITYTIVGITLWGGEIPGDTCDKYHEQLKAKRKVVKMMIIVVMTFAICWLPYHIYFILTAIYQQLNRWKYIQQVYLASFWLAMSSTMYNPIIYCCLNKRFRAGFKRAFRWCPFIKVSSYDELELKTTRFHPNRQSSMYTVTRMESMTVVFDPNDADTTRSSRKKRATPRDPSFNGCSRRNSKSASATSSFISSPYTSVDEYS
The experiment is described as follows: NK3 receptor efficacy and potency assay (FLIPR Calcium 4). It counts as cell-based. The note with it: read-out: Potency (cIC50/nM). On the procedure: Example 13 NK3 receptor efficacy and potency assay
BHK cells stably expressing the human NK3 receptor were seeded in 100 µl media in black walled clear-base 96-wells plates (Costar) aiming at a confluency of 95-100% at the day of assay. The assay was performed according to the FLIPR Calcium 4 Assay kit (Molecular Devices). At the day of the assay, the media was removed and the cells were washed once with the HBSS buffer (Hanks BSS buffer, pH 7,4 containing 20 mM Hepes) before 100 µl of a solution of the calcium assay reagent dissolved in the HBSS buffer containing 2,5 mM probinicid was added to the cells. The plates were incubated for 60 min at 34°C, 10% CO2 before use in the FLIPR for examination of fluorescence.
For efficacy and potency evaluation of compounds, these were diluted in HBSS buffer prior to test. For test of agonist activity, 25 µl of the diluted compound solution was added and the plate was analyzed for 5 minutes in the FLIPR. For test of antagonist activity, the plate was incubated for another 45 minutes before addition of 25 µl of the EC85 concentration ofNKB (app. 4 nM) as described above. The plates were subsequently analyzed for 5 minutes before the assay was terminated. The maximal increase in fluorescence over background following each ligand addition was determined.

Experiment [2] addresses T1, human NK3 receptor. Description: NK3 receptor binding assay (SPA-based competition binding with 125I-NKB). Note: competition with app 0.02 nM 125I-NKB. The note with it: read-out: Affinity (Ki/nM). On the procedure:
Example 12 NK3 receptor binding assay
Membranepreparation: BHK cells stably expressing the human NK3 receptor were seeded in harvesting plates in Dulbeccos MEM containing GlutaMax (862 mg/l), 1mM sodium pyruvate, 10% fetal calf serum, 1% Pen/Strep, 1 mg/ml G418 and were grown at 34 °C in a humidified atmosphere containing 10% CO2. To increase receptor expression, 10 µM trichotatin A was added to the media 24 hours before harvest of the cells at a confluency of app 90%. Prior to the harvesting, the cells were washed twice with PBS without Mg^2+ og Ca^2+ and subsequently scrapped of in 10 ml PBS pr harvesting plate. The cells suspension were centrifuged at 1500xG in three minutes before resuspension in 15 mM Tris-HCl pH 7,5 buffer containing 2 mM MgCl2; 0,3 mM EDTA and 1 mM EGTA (buffer A). The cell suspention was homogenised and subsequently centrifuged at 40000xG in 30 minutes. The membrane-pellet was resuspended in buffer A containing 250 mM sucrose, alliquoted and stored at ― 80 °C.
Affinity assay description: The assay was performed as a SPA-based competition-binding assay in a 50 mM Tris pH 7.4 assay buffer containing 120 mM NaCl, 3 mM MnCl2, 40 µg/ml bacitracin, 2 µg/ml Chymostatin, 1 µg/ml Phosphoramidon and 4 µg/ml Leupeptin. […] The assay plate was subsequently under agitation incubated for 90 min at RT. The plate was centrifugated 10 minutes at 500xG and counted in a topcounter 5 minuttes pr well.
The total binding, which comprised less than 5 % of added radioligand, was defined using assay buffer whereas the non-specific binding was defined in the presence of 1 µM osanetant. The non-specific binding constituted app 5 % of the total binding.

For the compound `CC[C@H](NC(=O)c1c(C)n(C2CCCC2)c(=O)c2ccccc12)c1ccccc1` [Example 1a, 2-Cyclopentyl-3-methyl-1-oxo-1,2-dihydro-isoquinoline-4-carboxylic acid ((S)-1-phenylpropyl)-amide], the IC50 on human NK3 receptor [1] was determined as 570 nM. The Ki at human NK3 receptor [2] stood at 310 nM.
On the same counts, the results for `CC[C@H](NC(=O)c1c(C)n(CCSC)c(=O)c2ccccc12)c1ccccc1` [Example 1q, 3-Methyl-2-(2-methylsulfanyl-ethyl)-1-oxo-1,2-dihydro-isoquinoline-4-carboxylic acid ((S)-1-phenyl-propyl)-amide] are 440 nM and 200 nM.
As for `CC[C@H](NC(=O)c1c(C)n(NCC(C)C)c(=O)c2ccccc12)c1ccccc1` [Example 2d, 2-Isobutylamino-3-methyl-1-oxo-1,2-dihydro-isoquinoline-4-carboxylic acid ((S)-1-phenyl-propyl)-amide], the IC50 on human NK3 receptor [1] stood at 230 nM. In addition, at human NK3 receptor [2], the Ki amounted to 46 nM.
On the same counts, the results for `CC[C@H](NC(=O)c1c(C)n(NCC(C)(C)C)c(=O)c2ccccc12)c1ccccc1` [Example 2e, 2-(2,2-Dimethyl-propylamino)-3-methyl-1-oxo-1,2-dihydro-isoquinoline-4-carboxylic acid ((S)-1-phenyl-propyl)-amide] are 580 nM and 180 nM.
In the case of `Cc1c(C(=O)N[C@H](c2ccccc2)C2CC2)c2cccc(F)c2c(=O)n1NCC(C)C` [Example 2j, 8-Fluoro-2-isobutylamino-3-methyl-1-oxo-1,2-dihydro-isoquinoline-4-carboxylic acid ((S)-cyclopropyl-phenyl-methyl)-amide], the Ki at human NK3 receptor [2] stood at 23 nM.
Take `CCNn1c(C)c(C(=O)N[C@H](c2cccc(F)c2)C2CC2)c2cccc(F)c2c1=O` [Example 2p, 2-Ethylamino-8-fluoro-3-methyl-1-oxo-1,2-dihydro-isoquinoline-4-carboxylic acid [(S)-cyclopropyl-(3-fluoro-phenyl)-methyl]-amide]: at human NK3 receptor [1], the IC50 was found to be 27 nM. Besides, on human NK3 receptor [2], the Ki is 12 nM.
As to `CCCNn1c(C)c(C(=O)N[C@H](c2cccc(F)c2)C2CC2)c2cccc(F)c2c1=O` [Example 2q, 8-Fluoro-3-methyl-1-oxo-2-propylamino-1,2-dihydro-isoquinoline-4-carboxylic acid [(S)-cyclopropyl-(3-fluoro-phenyl)-methyl]-amide], the Ki on human NK3 receptor [2] was 7.4 nM.
For the compound `CCNn1c(CN2CCCC2=O)c(C(=O)N[C@H](c2cccc(F)c2)C2CC2)c2cccc(F)c2c1=O` [Example 2r, 2-Ethylamino-8-fluoro-1-oxo-3-(2-oxo-pyrrolidin-1-ylmethyl)-1,2-dihydro-isoquinoline-4-carboxylic acid [(S)-cyclopropyl-(3-fluoro-phenyl)-methyl]-amide], the Ki at human NK3 receptor [2] worked out at 6.8 nM.
Take `COCCn1c(C)c(C(=O)N[C@H](c2cccc(F)c2)C2CC2)c2cccc(F)c2c1=O` [Example 4f, 8-Fluoro-2-(2-methoxy-ethyl)-3-methyl-1-oxo-1,2-dihydro-isoquinoline-4-carboxylic acid [(S)-cyclopropyl-(3-fluoro-phenyl)-methyl]-amide]: the IC50 at human NK3 receptor [1] amounted to 230 nM. Also, the Ki at human NK3 receptor [2] was found to be 76 nM.
On the same counts, the results for `O=C(N[C@H](c1cccc(F)c1)C1CC1)c1c(CN2CCCC2=O)n(CCC(F)(F)F)c(=O)c2c(F)cccc12` [Example 4l, 8-Fluoro-1-oxo-3-(2-oxo-pyrrolidin-1-ylmethyl)-2-(3,3,3-trifluoro-propyl)-1,2-dihydro-isoquinoline-4-carboxylic acid [(S)-cyclopropyl-(3-fluoro-phenyl)-methyl]-amide] are 10 nM and 9.3 nM.
With `Cc1c(C(=O)N[C@H](c2cccc(F)c2)C2CCC2)c2cccc(F)c2c(=O)n1CCO` [Example 4p, 8-Fluoro-2-(2-hydroxy-ethyl)-3-methyl-1-oxo-1,2-dihydro-isoquinoline-4-carboxylic acid [(S)-cyclobutyl-(3-fluoro-phenyl)-methyl]-amide], on human NK3 receptor [1], the IC50 stood at 380 nM. The Ki at human NK3 receptor [2] was 160 nM.
In the case of `Cc1c(C(=O)NC(c2cccc(F)c2)C2CCC2)c2cccc(F)c2c(=O)n1C1CCOC1` [Example 4r, 8-Fluoro-3-methyl-1-oxo-2-(S)-tetrahydro-furan-3-yl-1,2-dihydro-isoquinoline-4-carboxylic acid [(S)-cyclobutyl-(3-fluoro-phenyl)-methyl]-amide], on human NK3 receptor [1], the IC50 was found to be 390 nM.
For `CCOn1c(C)c(C(=O)N[C@H](c2cccc(F)c2)C2CCC2)c2cccc(F)c2c1=O` [Example 4t, 2-Ethoxy-8-fluoro-3-methyl-1-oxo-1,2-dihydro-isoquinoline-4-carboxylic acid [(S)-cyclobutyl-(3-fluoro-phenyl)-methyl]-amide], the IC50 at human NK3 receptor [1] turned out to be 180 nM. In addition, the Ki at human NK3 receptor [2] was determined as 68 nM.
On the same counts, the results for `Cc1c(C(=O)N[C@H](c2cccc(F)c2)C2CCC2)c2cccc(F)c2c(=O)n1C[C@H]1CCCN1` [Example 5d, 8-Fluoro-3-methyl-1-oxo-2-(R)-1pyrrolidin-2-ylmethyl-1,2-dihydro-isoquinoline-4-carboxylic acid [(S)-cyclobutyl-(3-fluoro-phenyl)-methyl]-amide] are 16 nM and 25 nM.
As for `Cc1c(C(=O)N[C@H](c2cccc(F)c2)C2CC2)c2cccc(F)c2c(=O)n1[C@@H]1CCNC1` [Example 5g, 8-Fluoro-3-methyl-1-oxo-2-(R)-1-pyrrolidin-3-yl-1,2-dihydro-isoquinoline-4-carboxylic acid [(S)-cyclopropyl-(3-fluoro-phenyl)-methyl]-amide], the IC50 at human NK3 receptor [1] came to 910 nM.
Turning to `CCCn1c(CN2CCNCC2)c(C(=O)N[C@H](c2cccc(F)c2)C2CC2)c2cccc(F)c2c1=O` [Example 6a, 8-Fluoro-1-oxo-3-piperazin-1-ylmethyl-2-propyl-1,2-dihydro-isoquinoline-4-carboxylic acid [(S)-cyclopropyl-(3-fluoro-phenyl)-methyl]-amide], the IC50 on human NK3 receptor [1] came to 7 nM. The Ki on human NK3 receptor [2] came to 13 nM.
On the same counts, the results for `CCCn1c(CN2CCNCC2)c(C(=O)N[C@H](c2cccc(F)c2)C2CCC2)c2cccc(F)c2c1=O` [Example 6b, 8-Fluoro-1-oxo-3-piperazin-1-ylmethyl-2-propyl-1,2-dhydro-isoquinoline-4-carboxylic acid [(S)-cyclobutyl-(3-fluoro-phenyl)-methyl]-amide] are 18 nM and 6.6 nM.
On the same counts, the results for `CCCn1c(CN2CCCC2=O)c(C(=O)N[C@H](c2cccc(F)c2)C2CC2)c2cccc(F)c2c1=O` [Example 6e, 8-Fluoro-1-oxo-3-(2-oxo-pyrrolidin-1-ylmethyl)-2-propyl-1,2-dihydro-isoquinoline-4-carboxylic acid [(S)-cyclopropyl-(3-fluoro-phenyl)-methyl]-amide] are 21 nM and 9.8 nM.
On the same counts, the results for `Cc1c(C(=O)N[C@H](c2cccc(F)c2)C2CC2)c2cccc(F)c2c(=O)n1C[C@@H]1CCCN1C` [Example 7a, 8-Fluoro-3-methyl-2-((S)-1-methyl-pyrrolidin-2-ylmethyl)-1-oxo-1,2-dihydro-isoquinoline-4-carboxylic acid [(S)-cyclopropyl-(3-fluoro-phenyl)-methyl]-amide] are 130 nM and 78 nM.
